Laboratory results: BigSolDB 2.1

COc1ccc(P(=O)(c2ccc(OC)cc2)c2ccc(OC)cc2)cc1
Conditions	solubility (mole fraction)
in 2-butanone, 288.15 K	0.00567
in 2-butanone, 293.16 K	0.00642
in 2-butanone, 298.17 K	0.00725
in 2-butanone, 303.18 K	0.00814
in 2-butanone, 308.14 K	0.00907
in 2-butanone, 313.16 K	0.0102
in 2-butanone, 318.17 K	0.0112
in 2-butanone, 323.16 K	0.0125
in 2-butanone, 328.17 K	0.0139
in 2-butanone, 333.16 K	0.0153
in 2-ethoxyethanol, 293.16 K	0.00573
in 2-ethoxyethanol, 298.17 K	0.00716
in 2-ethoxyethanol, 303.18 K	0.00919
in 2-ethoxyethanol, 308.14 K	0.0114
in 2-ethoxyethanol, 313.16 K	0.0143
in 2-ethoxyethanol, 318.17 K	0.0175
in 2-ethoxyethanol, 323.16 K	0.0223
in 2-ethoxyethanol, 328.17 K	0.0276
in 2-ethoxyethanol, 333.17 K	0.033
in 2-ethoxyethanol, 338.25 K	0.0401
in 2-ethoxyethanol, 343.17 K	0.0482
in benzene, 293.16 K	0.00031
in benzene, 298.17 K	0.00039
in benzene, 303.18 K	0.00048
in benzene, 308.14 K	0.00061
in benzene, 313.16 K	0.00076
in benzene, 318.17 K	0.00094
in benzene, 323.16 K	0.00112
in cyclohexane, 298.15 K	0.00053
in cyclohexane, 304.05 K	0.00082
in cyclohexane, 308.32 K	0.00113
in cyclohexane, 313.95 K	0.00166
in cyclohexane, 318.45 K	0.00229
in cyclohexane, 323.65 K	0.00322
in cyclohexane, 328.45 K	0.00455
in cyclohexane, 332.85 K	0.00589
in cyclohexane, 337.65 K	0.00806
in diethyl ether, 293.16 K	0.00607
in diethyl ether, 296.17 K	0.00739
in diethyl ether, 299.18 K	0.00929
in diethyl ether, 301.16 K	0.0106
in diethyl ether, 303.15 K	0.0118
in ethanol, 298.25 K	0.00037
in ethanol, 303.75 K	0.00049
in ethanol, 308.05 K	0.00067
in ethanol, 313.35 K	0.00102
in ethanol, 317.75 K	0.00128
in ethanol, 322.35 K	0.00168
in ethanol, 328.15 K	0.00236
in methanol, 293.35 K	0.00019
in methanol, 298.25 K	0.00024
in methanol, 303.15 K	0.00031
in methanol, 308.05 K	0.00042
in methanol, 313.15 K	0.00056
in methanol, 318.15 K	0.00071
in methanol, 322.65 K	0.00098
in toluene, 293.16 K	0.00036
in toluene, 298.17 K	0.00045
in toluene, 303.18 K	0.00055
in toluene, 308.14 K	0.00066
in toluene, 313.16 K	0.00083
in toluene, 318.17 K	0.00099
in toluene, 323.16 K	0.00121
in toluene, 328.17 K	0.00143
in toluene, 333.15 K	0.00169
